# Laboratory results from patent US12171756B2, “NLRP3 modulators” (Innate Tumor Immunity, Inc., priority 2017, dated 2024).
# Tests used:
# human TLR7 = molecular target: T1, human TLR7 (Homo sapiens, UniProt Q9NYK1); experiment: In vitro human TLR7 binding reporter assay (HEK-Blue, NF-kB/AP1-inducible SEAP); format: cell-based; conditions: HEK-Blue human TLR7 SEAP reporter cells; activity range classes; read-out: TLR7 Agonist EC50
# T1 construct: host or cells: human HEK-Blue cells (HEK293-derived) co-expressing TLR7 and an NF-kB/AP1-inducible SEAP reporter
# T1 sequence (Q9NYK1 27-1049): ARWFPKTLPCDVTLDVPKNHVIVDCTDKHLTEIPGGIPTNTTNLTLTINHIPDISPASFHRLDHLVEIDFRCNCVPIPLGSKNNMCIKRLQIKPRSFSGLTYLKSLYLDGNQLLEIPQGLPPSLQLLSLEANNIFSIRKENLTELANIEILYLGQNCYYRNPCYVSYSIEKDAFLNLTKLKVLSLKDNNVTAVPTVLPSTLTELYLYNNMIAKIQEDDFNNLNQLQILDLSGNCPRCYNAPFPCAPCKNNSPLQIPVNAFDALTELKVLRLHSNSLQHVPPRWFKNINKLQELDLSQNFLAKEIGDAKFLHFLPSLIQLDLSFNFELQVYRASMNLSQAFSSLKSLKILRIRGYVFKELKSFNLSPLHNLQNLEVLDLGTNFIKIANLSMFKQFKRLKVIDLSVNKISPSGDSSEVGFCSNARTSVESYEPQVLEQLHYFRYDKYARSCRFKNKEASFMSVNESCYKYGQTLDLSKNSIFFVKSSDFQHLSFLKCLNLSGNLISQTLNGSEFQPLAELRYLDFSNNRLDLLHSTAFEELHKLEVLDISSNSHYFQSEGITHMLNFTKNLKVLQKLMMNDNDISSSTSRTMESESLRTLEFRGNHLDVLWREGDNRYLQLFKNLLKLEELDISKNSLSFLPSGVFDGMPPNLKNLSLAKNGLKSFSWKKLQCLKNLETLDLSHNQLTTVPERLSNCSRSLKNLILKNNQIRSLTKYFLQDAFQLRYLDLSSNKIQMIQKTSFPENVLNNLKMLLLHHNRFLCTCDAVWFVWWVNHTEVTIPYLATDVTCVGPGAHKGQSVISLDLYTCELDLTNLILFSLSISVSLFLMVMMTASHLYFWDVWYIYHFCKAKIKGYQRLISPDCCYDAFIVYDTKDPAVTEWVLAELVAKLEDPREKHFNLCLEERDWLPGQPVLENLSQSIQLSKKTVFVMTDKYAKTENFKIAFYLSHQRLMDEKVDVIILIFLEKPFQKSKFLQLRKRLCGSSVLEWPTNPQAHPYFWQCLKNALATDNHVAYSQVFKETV
# Procedure: (§1) In Vitro Human TLR7 and TLR8 Binding Reporter Assays
# (§2) Logarithmically-growing human HEK-Blue cells co-expressing a TLR7 or TLR8 gene and a NF-kB/AP1-inducible SEAP (secreted embryonic alkaline phosphatase; Invivogen, San Diego, CA) reporter gene are added to individual wells of a 384-well plate (15,000 cells per 20 μL per well) and maintained for 24 h at 37° C., 5% CO2. Test compounds or DMSO are distributed to separate wells the next day using acoustic liquid handling technology (100 nL per well) and cells are subsequently incubated for 18 h at 37° C., 5% CO2. Cellular SEAP production is measured using an Envision plate reader instrument thirty minutes after adding freshly-made Quanti-Blue reagent (prepared by following manufacturer instructions; Invivogen, San Diego, CA) to the HEK-Blue TLR Nf-kB-SEAP cell reactions. All EC50 values (half-maximal effective concentration) are determined using proprietary data analysis software. Normalized EC50 value=absolute value determined by setting 100% Ymax using a reference standard RLU (relative light unit) values from cells treated with 50 μM of the reference standard.
# human TLR8 = molecular target: T2, human TLR8 (Homo sapiens, UniProt Q9NR97); experiment: In vitro human TLR8 binding reporter assay (HEK-Blue, NF-kB/AP1-inducible SEAP); format: cell-based; conditions: HEK-Blue human TLR8 SEAP reporter cells; activity range classes; read-out: TLR8 Agonist EC50
# T2 construct: host or cells: human HEK-Blue cells (HEK293-derived) co-expressing TLR8 and an NF-kB/AP1-inducible SEAP reporter
# T2 sequence (Q9NR97 27-1041): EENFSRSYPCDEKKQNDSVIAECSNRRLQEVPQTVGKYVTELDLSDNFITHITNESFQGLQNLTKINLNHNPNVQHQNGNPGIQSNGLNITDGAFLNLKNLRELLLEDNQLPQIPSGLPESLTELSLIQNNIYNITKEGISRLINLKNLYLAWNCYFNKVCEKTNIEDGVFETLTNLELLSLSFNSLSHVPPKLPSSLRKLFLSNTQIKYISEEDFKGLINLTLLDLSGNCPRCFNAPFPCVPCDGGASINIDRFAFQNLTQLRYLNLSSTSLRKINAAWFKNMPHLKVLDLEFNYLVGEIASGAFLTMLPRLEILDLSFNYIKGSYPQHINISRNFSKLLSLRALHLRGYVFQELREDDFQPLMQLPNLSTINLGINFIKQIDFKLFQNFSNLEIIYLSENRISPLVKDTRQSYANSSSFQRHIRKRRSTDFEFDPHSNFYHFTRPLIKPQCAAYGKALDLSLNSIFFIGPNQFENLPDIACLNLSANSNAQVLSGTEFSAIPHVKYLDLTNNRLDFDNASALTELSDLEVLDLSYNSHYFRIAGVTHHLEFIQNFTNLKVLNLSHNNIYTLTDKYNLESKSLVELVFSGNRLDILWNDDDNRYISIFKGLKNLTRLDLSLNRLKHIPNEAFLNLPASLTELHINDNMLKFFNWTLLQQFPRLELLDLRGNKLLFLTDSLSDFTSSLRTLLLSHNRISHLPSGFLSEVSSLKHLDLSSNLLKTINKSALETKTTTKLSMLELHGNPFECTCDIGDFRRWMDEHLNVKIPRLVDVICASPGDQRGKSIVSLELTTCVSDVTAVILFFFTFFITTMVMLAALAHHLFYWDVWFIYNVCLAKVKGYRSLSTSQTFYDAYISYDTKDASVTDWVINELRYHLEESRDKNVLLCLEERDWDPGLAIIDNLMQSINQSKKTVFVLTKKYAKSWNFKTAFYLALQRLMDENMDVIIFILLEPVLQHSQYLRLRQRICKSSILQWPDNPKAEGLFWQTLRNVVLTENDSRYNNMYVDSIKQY
# Procedure: as §1, §2
# [1] = tested on: IL-1β production in PMA-differentiated THP-1 cells; experiment: Measurement of IL-1β production in PMA-differentiated THP-1 cells (ELISA, 4 hours); format: cell-based, human; conditions: Homo sapiens, THP-1, human IL-1β production, assayed using one or more of the described procedures, read-out: NLRP3 hIL1B IC50
# Procedure: Measurement of IL-1β Production in PMA-Differentiated THP-1 Cells THP-1 cells were purchased from the American Type Culture Collection and sub-cultured according to instructions from the supplier. Prior to experiments, cells were cultured in RPMI 1640 containing 10% heat inactivated FBS, penicillin (100 units/ml) and streptomycin (100 μg/ml), and maintained in log phase prior to experimental setup. Prior to the experiment THP-1 were treated with PMA (Phorbol 12-myristate 13-acetate) (10 μg/ml) for 24 hours. The day of the experiment the media was removed and attaching cells were treated with trypsin for 2 minutes, cells were then collected, washed with PBS (phosphate buffer saline), spin down, resuspended in 2% heat inactivated FBS with RPMI at a concentration of 1×10^6 cells/ml, and 100 μl was plated in a 96 well plate. Compounds were dissolved in dimethyl sulfoxide (DMSO) and added to the culture medium to achieve desired concentration (e.g. 100, 30, 10, 3, 1, 0.3 or 0.1 μM). Cells were incubated with compounds for 4 hours. Cell free supernatant was collected and the production of IL-1β was evaluated by ELISA. A vehicle only control was run concurrently with each experiment. Final DMSO concentration was 1%.
Compound,EC50 (human TLR7) [µM],EC50 (human TLR8) [µM],IC50 [1] [µM]
Nc1cc(OCCc2ccsc2)c2ccc(-c3cccs3)cc2n1 [Compound 330],> 100,> 100,24.6
Nc1nc2cc(-c3ccn[nH]3)ccc2cc1C(=O)Nc1cccnc1 [Compound 124],> 100,> 100,14.5
Nc1cc(N[C@H]2CCOC2)c2ccc(-c3ccn[nH]3)cc2n1 [Compound 277],> 100,> 100,0.22
CS(=O)(=O)CCNc1cc(N)nc2cc(-c3ccn[nH]3)ccc12 [Compound 140],> 100,> 100,1.41
Nc1cc(NCCNC(=O)c2ccccn2)c2ccc(-c3ccn[nH]3)cc2n1 [Compound 204],> 100,> 100,0.64
Nc1cc(N[C@@H]2CCCOC2)c2ccc(-c3ccn[nH]3)cc2n1 [Compound 289],> 100,> 100,0.85
Nc1cc(NCc2cc[nH]n2)c2ccc(-n3cccn3)cc2n1 [Compound 292],> 100,> 100,0.34
Nc1cc(N2CCc3ncccc3C2)c2ccc(-c3ccn[nH]3)cc2n1 [Compound 164],> 100,> 100,1.91
"Nc1cc(NCc2ncccn2)c2ccc(-c3ccn[nH]3)cc2n1 [Compound 316, 7-(1H-pyrazol-5-yl)-N4-(pyrimidin-2-ylmethyl)quinoline-2,4-diamine]",> 100,> 100,0.56
COCCNc1cc(N)nc2cc(-c3ccn[nH]3)ccc12 [Compound 255],> 100,> 100,0.27
Nc1cc(NCC2(O)CC2)c2ccc(-c3ccn[nH]3)cc2n1 [Compound 147],> 100,> 100,0.99
"CC(=O)NCCCNc1cc(N)nc2cc(-c3ccn[nH]3)ccc12 [Compound 213, N-(3-((2-amino-7-(1H-pyrazol-5-yl)quinolin-4-yl)amino)propyl)acetamide, 2TFA]",> 100,> 100,1.55
Nc1cc(NCC(O)c2cccnc2)c2ccc(-c3ccn[nH]3)cc2n1 (stereo not drawn) [Compound 154],> 100,> 100,0.44
"Nc1cc(CCCOCc2ccccc2)c2ccc(-c3cc[nH]n3)cc2n1 [Compound 108, 4-[3-(benzyloxy)propyl]-7-(1H-pyrazol-3-yl)quinolin-2-amine]",–,–,1.15
"CN(C)CCCNc1cc(N)nc2cc(-c3ccn[nH]3)ccc12 [Compound 168, N4-(3-(dimethylamino)propyl)-7-(1H-pyrazol-5-yl)quinoline-2,4-diamine]",–,> 100,2.4
"Nc1nc2cc(-c3ccn[nH]3)ccc2cc1-c1cnc[nH]1 [Compound 123, 3-(1H-imidazol-5-yl)-7-(1H-pyrazol-5-yl)quinolin-2-amine]",–,–,3.01
CN1CCN(c2cc(N)nc3cc(-c4ccn[nH]4)ccc23)CC1 [Compound 130],–,> 100,2.76

# More lines, now with the values ahead:
EC50 (human TLR7) [µM],EC50 (human TLR8) [µM],IC50 [1] [µM],Compound
> 100,> 100,0.48,Nc1cc(NCCCCO)c2ccc(-c3ccn[nH]3)cc2n1 [Compound 144]
> 100,> 100,2.23,"Nc1cc(CCCO)c2ccc(-n3cccn3)cc2n1 [Compound 216, 3-(2-amino-7-(1H-pyrazol-1-yl)quinolin-4-yl)propan-1-ol]"
> 100,> 100,0.1,"Nc1cc(NCc2cc[nH]n2)c2ccc(-c3ccn[nH]3)cc2n1 [Compound 128, N4-((1H-pyrazol-3-yl)methyl)-7-(1H-pyrazol-5-yl)quinoline-2,4-diamine]"
–,–,1.98,Nc1nc2cc(-c3ccn[nH]3)ccc2cc1-c1cccc(CO)n1 [Compound 125]
–,> 100,9.92,Nc1cc(OCCCN2CCCC2=O)c2ccc(-c3ccn[nH]3)cc2n1 [Compound 181]
–,–,1.87,CN1CCN(CCc2cc3ccc(-c4ccn[nH]4)cc3nc2N)CC1 [Compound 122]
–,–,4.24,Nc1nc2cc(-c3ccn[nH]3)ccc2cc1C1(CO)CC1 [Compound 120]
–,–,5.8,Nc1nc2cc(-c3ccn[nH]3)ccc2cc1CNCC1CCCO1 (stereo not drawn) [Compound 117]
–,–,3.53,Cc1n[nH]c(-c2cc3ccc(-c4ccn[nH]4)cc3nc2N)n1 [Compound 126]
> 100,–,0.76,"Nc1cc(NCCC2CCOCC2)c2ccc(-n3cccn3)cc2n1 [Compound 346, 7-(1H-pyrazol-1-yl)-N4-(2-(tetrahydro-2H-pyran-4-yl)ethyl)quinoline-2,4-diamine]"
–,> 100,0.38,Nc1cc(NCCCO)c2ccc(-c3ccn[nH]3)cc2n1 [Compound 171]
–,> 100,3.03,Nc1nc2cc(-c3ccn[nH]3)ccc2cc1CCN1CCOCC1 [Compound 121]
–,> 100,7.27,CN1CCN(CCCCOc2cc(N)nc3cc(-c4ccn[nH]4)ccc23)CC1 [Compound 184]
